Here are results for one molecule from paper PMC5770468, “Cardiac glycoside/aglycones inhibit HIV-1 gene expression by a mechanism requiring MEK1/2-ERK1/2 signaling” (Scientific Reports, 2018).

Assay [1] concerns HIV-1 (Gag) gene expression. Description: HIV-1 (Gag) gene expression in HeLa rtTA-HIV-ΔMls cells, p24CA ELISA dose response. Type of assay: cell-based, HIV-1 (LAI). As to the method: Drug/compounds were tested for effects on HIV-1 gene expression using inducible Tet-ON HIV-1 cell lines [HeLa rtTA-HIV-ΔMls or rtTA-HIV(Gag-GFP)] containing a HIV-1 (LAI) provirus activatable by Dox or tetracycline transactivator (tTA)[69]. The rtTA-HIV-ΔMls provirus was modified and used as previously reported[9]–[11],[70]. The rtTA-HIV(Gag-GFP) provirus was generated by deletion of the PR and RT coding regions within pol and insertion of GFP to the 3′ of gag, creating GFP fused to the C-terminal of Gag. After 4 h of drug/compound treatment, HIV-1 gene expression was activated with Dox (2 μg/mL) or tTA (described below). Equal concentrations of DMSO were present in each experiment. After ~20 h, cells and media were harvested to monitor the effects of drug/compound treatments as described below. HIV-1 gene expression was quantified via p24^CA ELISA or monitoring Gag-GFP fluorescence in cells as described below. In parallel, cell viability of treatments were assessed by XTT assay (Sigma-Aldrich, #TOX2).
Drug/compounds were purchased from Sigma (Digoxin, #D6003; Digitoxin, #D5878; Digoxigenin, #D9026; Digitoxigenin, #D9404; Ouabain, #O3125; Bufalin, #S961175; Cinobufagin, #C1272; and Anisomycin, #A9789) and derivatives of convallatoxin were synthesized from C. Lingwood’s lab of the Hospital for Sick Children (convallatoxin, peruvoside, RIDK-34, -36, -20, -21, -27, and -28). […] Recombinant human EGF was from Invitrogen (#PHG0314). Chemical structures were drawn in ChemSketch (ACD/Labs).
To monitor HIV-1 gene expression or replication, Gag release into cell culture supernatants were assayed by ELISA using a p24^CA antigen capture assay kit (AIDS & Cancer Virus Program, NCI-Frederick, Frederick, MD USA). Media harvested from HIV clinical isolates were diluted ~10 fold (or as necessary) prior to performing this assay. For analysis of HIV-1 and SR protein expression (and phosphorylation states with calf intestinal alkaline phosphatase treatments), cells were lysed and analyzed by western blot as previously outlined. Phosphatase inhibitors (e.g. 10 mM sodium fluoride, 2 mM sodium orthovanadate) were added to solutions requiring phospho protein analyses. An anti-chicken NKA antibody (α6F, #a6F–c, Developmental Studies Hybridoma Bank, The University of Iowa, contributed by Douglas M. Fambrough, The Johns Hopkins University) was used as specified to detect NKA α1- and β1-subunits across species. […] Activation of MAPKs was determined by western blot quantitation and calculation of phospho/total protein levels. […] Images were exported as TIF files for assembly, rotation, and equal brightness/contrast adjustments in ImageJ or Microsoft Powerpoint. Some lanes were cropped and rearranged from the same blot/gel as indicated. In representative gel/blot sets, samples were electrophoresed from the same experiment as controls, resolved simultaneously on identically cast gel(s), transferred to same PVDF (by either wet electrophoretic or by Bio-Rad Trans-Blot® Turbo Transfer System), and detected at same time. Marked locations of molecular weight (MW) standards are shown on the left as a reference. […] SUnSET analysis of total cellular protein synthesis. HeLa rtTA-HIV-ΔMls cells were cultured in the presence/absence of compound and pathway inhibitor (if any) and Dox induced for ~24 h as already described, then treated with puromycin (10 μg/mL, Sigma-Aldrich, #P8833) for 30 min to label nascent proteins prior to harvest. As control, 10 µM of cycloheximide (Sigma-Aldrich, #C4849) was added to some cells prior to puromycin treatment. Cells were subsequently washed, whole cell lysates prepared, and proteins quantified by western blot using an anti-puromycin antibody (EMD Millipore, #anti-12D10) as described above. Transfection of plasmid DNA into cells.
(In an ELISA, binding on a coated surface is turned into a signal by an enzyme label.)

For another assay, the system named is HeLa rtTA-HIV-ΔMls cells. Description: In vitro therapeutic index (CC20/IC50) in HeLa rtTA-HIV-ΔMls cells. Type of assay: cell-based, human. The text has this:
Without median toxic dose (TD50) and half-maximal effective concentration (EC50) data available to calculate TIs (in vivo) from HIV patients treated with CSs, we determined the following TIs for each cell type treated with a CS (summarized in Supplementary Table S1): in vitro TIs from HeLa rtTA-HIV-ΔMls cells using CC20/IC50 (instead of CC50/IC50), in vitro TIs from 24ST1NLESG cells using CC50/IC50, and ex vivo TIs from HIV-infected PBMCs using CC50/IC50 (at day 14 of culture approximated from available cell viability trends for CC50s of Supplementary Fig. S13 and inferred near maximal IC50s).
Supplementary Table S1. Comparison of the in vitro (IVTI) and ex vivo therapeutic indices (EVTIs) of CSs and their impact on the expression of essential HIV-1 proteins.
Notes: data for CC20, CC50, and IC50s for each drug/compound were estimated from dose response curves in Figures 1-2, Supplementary Table S1, Supplementary Figures S2, S5, and S13, and Wong et al.
">" means the estimate has not been accurately determined but is greater than the highest concentration […]
"( )" indicates preliminary data that was not shown. aCC20 instead of CC50 was estimated from dose response curves and used for calculation of IVTIs. bCells were treated at ~IC90of a CS.
(1 picture or pasted object on this page, not shown here)

Another assay deals with HIV-1 US RNAs. Description: FISH localization of HIV-1 US RNA in HeLa rtTA-HIV(Gag-GFP) cells. The class given is cell-based. To be noted: ~IC90s of CSs. From the text: Figure 4 CSs suppress HIV-1 gene expression by altering viral RNA processing. […] (a,b) CSs induce oversplicing of HIV-1 RNAs (n ≥ 3, mean, s.e.m.). (a) Diagram of the primer positions (arrow heads) used for qRT-PCR. (b) Graph of the relative amount of US (black), SS (white), and MS (gray) HIV-1 RNAs in cells treated with various CSs. (c) Nuclear export of HIV-1 US RNAs in cells is altered by CSs (representative n ≥ 4). HIV-1 US RNAs were localized by FISH after treating HeLa rtTA-HIV(Gag-GFP) cells as described above but with ~IC90s of CSs. Nuclei were stained by DAPI and images captured at 630 × magnification. (d) CSs induce differential post-translational modification of SR proteins (representative n ≥ 3). SRp20, Tra2β, and tubulin were analyzed by immunoblot of HeLa rtTA-HIV-ΔMls cells treated as described above except cells of this representative blot were treated 3 d with ~IC50s of CSs. (g) Lanes were cropped and assembled from the same gel/blot per box (Supplementary Fig. S4d).
RNA was extracted from cells, reverse transcribed, and resulting cDNAs subject to qRT-PCR quantification of HIV-1 mRNAs as previously described except reactions used iTaq™ Universal SYBR® Green Supermix (Bio-Rad, #172-5120) run on a Bio-Rad CFX384 Touch™ Real-Time PCR Detection System and analyzed with CFX Manager™[9]. NKA α1, 2, and 3 subunits were detected by published primers, amplified by iTaq using the same cycling temperature and times previously described for HIV-1 US/MS cDNAs except α1, 2, and 3 annealing temperatures were 61 °C[9],[73]. All data was normalized to β-actin as internal loading control. Primers sequences for NKA α subunits were as follows: α1 forward (5′-[…] -3′), α1 reverse (5′- […] -3′), α2 forward (5′-[…]-3′), α2 reverse (5′-[…]-3′), α3 forward (5′-[…]-3′), and α3 reverse (5′-GGGCAGACTCAGACGCATC-3′). Monitoring the subcellular localization of HIV-1 genomic RNA. HeLa rtTA-HIV(Gag-GFP) cells were seeded on cover slips, treated with drug/compound, and processed for FISH to detect HIV-1 US RNAs using Stellaris™ probes (Biosearch Technologies) as previously detailed[10],[11].

The structures appear in SMILES notation. Read-outs that look alike come from different tables or passages of the source.

On to `C[C@]12CC[C@H](O)C[C@H]1CC[C@@H]1[C@@H]2CC[C@]2(C)[C@@H](c3ccc(=O)oc3)CC[C@]12O` [Bufalin], for which, in assay [1], the “IC50 lower for HIV-1 inhibition compared to digoxin” value came out at 9 fold and the “better anti-HIV-1 activity than digoxin” value is listed as 9 fold. Besides, in assay [1] (Human immunodeficiency virus 1, HeLa, read-out: IC50 (nM) HeLa rtTA-HIV-ΔMls), the IC50 was found to be 5 nM. In addition, the IC90 in assay [1] (Human immunodeficiency virus 1, HeLa, read-out: IC90, HIV-1 (Gag) gene expression) is 15 nM. Besides, the IC80 in assay [1] (Human immunodeficiency virus 1, HeLa, read-out: ~IC80 (approximate concentration used in experiments)) is around 11 nM. For the same molecule, the IC90 in assay [1] (Human immunodeficiency virus 1, HeLa, read-out: ~IC90 (approximate concentration used in experiments)) was around 15 nM. In addition, in the assay on HeLa rtTA-HIV-ΔMls cells, the “better in vitro TI than digoxin” value was 9 fold. Further, the “HIV-1 US RNA subcellular localization” value in the assay with HIV-1 US RNAs was “almost exclusively within the nucleus”.

As a reminder, the IC50 is the point on the concentration scale where inhibition reaches its midpoint.
